Patent US20040033213A1, “Methods of modulating dendritic cells using adjuvants” (Corixa Corporation, priority 2002, published 2004)

Columns and labels:
Format in all cases: cell-based
[1] = system: Human d7 Cultured Dendritic Cells; assay: Flow cytometry phenotype analysis of human d7 cultured dendritic cells after 24 h stimulation; conditions: for HLA-DR MFI: 7 day DCs, 24 h stimulation
[2] = system: 6-7 day cultured human dendritic cells; assay: ELISA of cytokines (IL-12 p40, IL-12 p70, TNF-α) in 22 h induction supernatants of cultured human dendritic cells; conditions: for IL-12 p40 / IL-12 p70 / TNF-α: 22 Hrs
Source text: Recent articles have described how human dendritic cells can be derived in vitro from CD14 positive monocyte precursors in peripheral blood. A “buffy coat” preparation can now be commonly obtained from a unit of normal human peripheral blood from a blood bank on request. The leukocyte fraction was harvested from this buffy coat preparation using standard ficoll centrifugation techniques. Subsequently, the leukocyte fraction was labeled with anti-CD 14 antibody coupled to magnetic microbeads. This preparation was then passed over a magnet (Miltanyi Biotech) and CD14 positive monocytes were collected. These CD14 positive monocyte precursors were then cultured for 5-7 days in vitro (5×10^5 cells/ml) with GM-CSF (20 ng/ml) for the duration of the culture. […] After the 24 hour in vitro stimulation culture, cells were washed twice and stained with a panel of monoclonal antibodies specific for different cell surface activation and co-receptor molecules found on mature, activated DCs.
Supernatants from DCs stimulated with LPS, MPL® immunostimulant-S, RC-527, RC-529, and RC-544 were collected and tested by ELISA analysis for cytokines.

[3] = system: cultured human DCs + autologous T cells
[4] = system: cultured human dendritic cells (DC); assay: Flow cytometry of cell surface activation markers on human DCs restimulated 72 hours with AGPs (titration)
Protocol: Dendritic cells are developed in-vitro from human CD14+ monocyte precursors using standard 7 day GM-CSF ([…]) and IL-4 ([…]) culture conditions. The cultured DCs are >90% CD11c^+/HLA-DR^+/lineage^− by flow cytometry analysis. FIGS. 15-18 show the results of flow cytometry analysis of gated CD11c^+/HLA-DR^+/lineage^− human DCs after they were restimulated in-vitro for 72 hours in the presence of selected AGPs at a titration range of 0.1 μg/ml-2 μg/ml. Data is expressed as the percent of gated DCs which are positive for the indicated marker (y-axis) versus the logo10 of the AGP or lipid A concentration. R595 LPS was used in each induction at 10 ng/ml as a positive control—the negative control was unstimulated human dendritic cells cultured for 72 hours in the same medium conditions used for AGP stimulation. Data was analyzed using non-linear regression analysis—all data was modeled using a 3rd order polynomial to determiine the best curve fit.

[5] = Exp. 091698, 24 h, LPS 10 ng/ml, others 100 ng/ml
[6] = Exp. 092398, 24 h, LPS 10 ng/ml, others 100 ng/ml
[7] = Exp. 093098, 24 h, LPS 10 ng/ml, others 100 ng/ml
[8] = Exp. # 092398, Day 7, LPS 10 ng/ml, others 100 ng/ml
[9] = Exp. # 093098, LPS 10 ng/ml, others 100 ng/ml

## CCCCCCCCCCCCCC(=O)O[C@H](CCCCCCCCCCC)CC(=O)NCCO[C@@H]1O[C@H](CO)[C@@H](OP(=O)(O)O)[C@H](OC(=O)C[C@@H](CCCCCCCCCCC)OC(=O)CCCCCCCCCCCCC)[C@H]1NC(=O)C[C@@H](CCCCCCCCCCC)OC(=O)CCCCCCCCCCCCC.CCN(CC)CC [RC-529, 2-[(R)-3-Tetradecanoyloxytetradecanoylamino]ethyl 2-Deoxy-4-O-phosphono-3-O-[(R)-3-tetradecanoyoxytetradecanoyl]-2-[(R)-3-tetradecanoyoxytetradecanoylamino]-β-D-glucopyranoside triethylammonium salt]
[1]; [5]
  CD 1a % positive cells: 94.3%
  CD 1a MFI: 9.29
  CD 4 % positive cells: 77.0%
  CD 4 MFI: 2.44
  CD 14 % positive cells: 7.5%
  CD 35 % positive cells: 47.6%
  CD 35 MFI: 2.66
  CD 40 MFI: 22.0
  CD 44 MFI: 285
  CD 54 MFI: 28.2
  CD 62 L % positive cells: 6.4%
  CD 69 % positive cells: 4.4%
  CD 80 % positive cells: 98.9%
  CD 80 MFI: 6.19
  CD 83 % positive cells: 71.0%
  CD 83 MFI: 2.89
  CD 86 % positive cells: 98.7%
  CD 86 MFI: 9.30
  CD 95 % positive cells: 53.8%
  CD 95 MFI: 1.12
[1]; Exp. 091698, LPS 10 ng/ml, others 100 ng/ml
  HLA-DR MFI: 88.2
[1]; [6]
  CD 1a % positive cells: 86.5%
  CD 1a MFI: 5.47
  CD 4 % positive cells: 71.6%
  CD 4 MFI: 2.65
  CD 14 % positive cells: 4.2%
  CD 35 % positive cells: 58.8%
  CD 35 MFI: 2.92
  CD 40 MFI: 31.5
  CD 54 MFI: 36.6
  CD 62 L % positive cells: 11.1%
  CD 69 % positive cells: 11.0%
  CD 80 % positive cells: 99.1%
  CD 80 MFI: 8.46
  CD 83 % positive cells: 94.7%
  CD 83 MFI: 3.32
  CD 86 % positive cells: 99.9%
  CD 86 MFI: 25.3
  CD 95 % positive cells: 90.4%
  CD 95 MFI: 1.43
  αC5aR + GAR Alexa % positive cells: 53.4%
[1]; Exp. 092398, 24 h, LPS 10 ng/ml, others 100 ng/ml, values printed with a trailing +
  CD 44 MFI: 442+
[1]; Exp. 092398, 24 h, secondary reagent staining, LPS 10 ng/ml, others 100 ng/ml
  GAR-Alexa % positive cells: 2.4%
[1]; Exp. 092398, LPS 10 ng/ml, others 100 ng/ml
  HLA-DR MFI: 158.8
[1]; [7]
  CCR 6 % positive cells: 5.3%
  CD 1a % positive cells: 80.1%
  CD 1a MFI: 6.51
  CD 3 % positive cells: 27.3%
  CD 3 MFI: 3.87
  CD 4 % positive cells: 77.9%
  CD 4 MFI: 2.97
  CD 11c % positive cells: 92.4%
  CD 11c MFI: 6.82
  CD 14 % positive cells: 3.9%
  CD 40 MFI: 26.1
  CD 54 MFI: 36.4
  CD 62 L % positive cells: 3.4%
  CD 80 % positive cells: 99.1%
  CD 80 MFI: 10.7
  CD 83 % positive cells: 82.4%
  CD 83 MFI: 3.38
  CD 86 % positive cells: 99.7%
  CD 86 MFI: 22.0
  CD 123 % positive cells: 44.1%
  CD 123 MFI: 1.90
  αC5aR + Alexa 488 % positive cells: 48.6%
  αC5aR + Alexa 488 MFI: 10.4
[1]; Exp. 093098, LPS 10 ng/ml, others 100 ng/ml
  HLA-DR MFI: 161.5
[1]; RC-529 compared with RC-544, all three experiments
  upregulation of HLA-DR expression (in words): slightly more effective
[1]; RC-529 compared with RC-544, three experiments
  stimulating the expression of HLA-DR and co-stimulatory molecules (in words): very comparable effects
[2]; Exp. # 091698, LPS 10 ng/ml, others 100 ng/ml
  IL-12 p40: 38,700 pg/mL/5 × 10^5 Cells
[2]; Exp. # 092398 (second line, Day7), LPS 10 ng/ml, others 100 ng/ml
  IL-12 p70: 215.3 pg/ml/5 × 10^5 Cells
[2]; [8]
  IL-12 p40: 127,500 pg/mL/5 × 10^5 Cells
  TNF-α: 7,400 pg/mL/5 × 10^5 Cells
[2]; Exp. # 092398 as printed (first line of section), LPS 10 ng/ml, others 100 ng/ml
  IL-12 p70: 4.2 pg/ml/5 × 10^5 Cells
[2]; Exp. # 092398 as printed (third line of section), LPS 10 ng/ml, others 100 ng/ml
  IL-12 p70: 28.2 pg/ml/5 × 10^5 Cells
[2]; [9]
  IL-12 p40: 60,700 pg/mL/5 × 10^5 Cells
  TNF-α: 372 pg/mL/5 × 10^5 Cells
[2]; all three experiments, LPS 10 ng/ml, others 100 ng/ml
  IL-12 (p40) expression (in words): also stimulated IL-12 (p40) responses
[2]; the one donor in which LPS and MPL-S gave a significant amount
  IL-12 (p70) (in words): high levels of IL-12 (p70)
[2]; three donors
  TNF-α secretion (in words): moderately lower than the effect due to RC-527
[3]
  T cell proliferation / DC activation, CPM 3H-thymidine response (in words): comparable in their effect and quantitatively higher than the background response
[4]; 72 hours, FIG. 15
  concentration at which the CD80 effect appears to plateau: 1 µg/mL
[4]; 72 hours, FIG. 18
  concentration at which the CD86 effect plateaus or maximizes: 1 µg/mL
[4]; 72 hours, titration 0.1-2 μg/ml, FIG. 15
  cell surface expression of CD80 (in words): lowest overall increase in CD80 expression
[4]; 72 hours, titration 0.1-2 μg/ml, FIG. 16
  DC expression of CD83 (in words): weak overall increase in CD83 expression
[4]; single analysis, one normal donor
  overall induction of DC maturation and co-stimulatory molecule expression (in words): very low to marginally positive CD80 and CD83 expression
